Source: US20090227572A1, “TREATMENT OF DIABETIC WOUNDS AND PERIPHERAL NEUROPATHIES” (Cytrx Corporation, priority 2007, published 2009)

Assays:
[1] = rat, subchronic studies; cited from earlier work
[2] = Morbidity, mortality and body weights in the wound healing study (Example 1); format: in vivo, mice
Description: The mice began daily dosing as detailed in Table 1 on the day of wounding. The mice continued to receive daily treatment until wound closure as determined by the study director and the client. Blood glucose levels were measured by glucometer prior to the first scheduled dosing and weekly thereafter-using blood collected by tail nick. Body weights were measured weekly beginning prior to treatment. Clinical observations were conducted weekly.

[3] = mice, previously determined; cited from earlier work
[4] = test system: Homozygous, diabetic mice; assay: Wound healing in homozygous diabetic mice, systemic or topical administration (Example 2); format: in vivo; settings: topical administration, 4% w/v aqueous solution, FIG. 7
Description: Homozygous, diabetic mice described above, and wounded in the manner described above in Example 1, were treated by topical administration of iroxanadine or arimoclomol. A 4% w/v aqueous solution of arimoclomol were separately administered topically to the wounded position. […] dosage of iroxanadine was at 10 mg/kg IP, b.i.d., a relatively low concentration.

[5] = test system: BKS.Cg-m^+/+ Lepr^db/J homozygous mice; assay: Wound healing in diabetic db/db mice, daily oral dosing (Example 1); format: in vivo
Description: Seventy male BKS.Cg-m^+/+ Lepr^db/J homozygous mice were housed and handled for seven (7) days prior to commencement of the procedure for acclimation purposes. The mice weighed 26.1-41.2 g on Day 0, at the age of 8 weeks. As control, twenty male BKS.Cg-m^+/− Lepr^db/J heterozygous mice were handled similarly. These mice weighed 19.6-25.1 g on Day 0, at the age of 8 weeks. Mice were divided into Groups (1) to (9), each group consisting of 10 mice.
On Day 0, two full-thickness wounds were made on each mouse in Groups A-I (n=80). […]
Immediately following the generation of the skin wound, the original wound was traced by using a fine point maker to outline the perimeter of the wound onto transparency paper (the mouse was immobilized using isoflurane anesthesia for this procedure), and wound size was then traced every 3 days. […] Outlines were digitized, quantified and analyzed using computer imaging software as described below.
The mice began daily dosing as detailed in Table 1 on the day of wounding. The mice continued to receive daily treatment until wound closure as determined by the study director and the client. Blood glucose levels were measured by glucometer prior to the first scheduled dosing and weekly thereafter-using blood collected by tail nick. Body weights were measured weekly beginning prior to treatment. […]
Raw data was reviewed (read and understood) for accuracy. […]

| Compound | no observed adverse effect level (NOAEL) [1] [mg/kg] | tolerability of the highest dose relative to maximum tolerated dose (MTD) ([2]; 200 mg/kg QD PO, administered with EtOH) | unplanned mice deaths outside of the study protocol ([2]; highest dose 200 mg/kg QD PO, Groups (2) and (8), formulation contained EtOH Days 0-8) | effect on body weight ([2]; mice, daily until wound closure, FIG. 1A-B) | acute oral LD50 [3] [mg/kg] | wound healing over time [4] | wound closure rate ([5]; rate analysed for Days 0-8 (with ethanol) and Days 9-12 (no ethanol), FIG. 5E) | odds of closure of both wounds (hazard ratio, proportional hazard model) ([5]; relative to homozygous diabetic control Group (3), iroxanadine 10-200 mg/kg Groups (4)-(8), arimoclomol 200 mg/kg Group 9, QD PO, FIG. 4) |
| --- | --- | --- | --- | --- | --- | --- | --- | --- |
| c1cncc(C2=NOCC(CN3CCCCC3)N2)c1 (centres unmarked) [iroxanadine, 5,6-dihydro-5(1-piperidinyl)-methyl-3-(3-pyridyl)-4H-1,2,4-oxadiazine] | 400 | may be above the maximum tolerated dose (MTD) and approaching LD50 | Eight of the nine deaths | No significant effect on body weight was observed except in diabetic animals treated with the highest dose | 3800 |  |  |  |
| [O-][n+]1cccc(/C(Cl)=N/OC[C@H](O)CN2CCCCC2)c1 [arimoclomol, N-[2-hydroxy-3-(1-piperidinyl)propoxy]-pyridine-1-oxide-3-carboximidoyl chloride] |  |  |  |  |  | clearly showed an accelerated healing of wounds | statistically relevant increase in the wound closure rate | appeared to be effective in increasing the odds of wound closure |
